Reference: the supplement of paper PMC10307832

Columns and labels:
Experiment in all cases: relative viability (nuclei count vs DMSO), 5 days (fraction); higher = more cells survive
[1] = compound: O=C(CCCCCCC(=O)Nc1ccccc1)NO [Vorinostat] + CCNC(=O)c1noc(-c2cc(C(C)C)c(O)cc2O)c1-c1ccc(CN2CCOCC2)cc1 [Luminespib] (partner 0.01 µM)
In short: (§1)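 After 5 days of treatment, lung cancer cells in 1536-well plates were fixed and stained in a single step (final 0.05% Triton X-100, 1% formaldehyde, 1 ug/ml Hoechst) and their nuclei counted on 4× images. Treatment had been applied by pin tool the day after seeding as one drug alone or as a fixed anchor-drug dose with five library-drug doses (not always all listed) in √10 steps. Relative viability is the nuclei count of treated wells divided by that of vehicle wells, and values are medians of duplicate plates.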

[2] = compound: O=C(CCCCCCC(=O)Nc1ccccc1)NO [Vorinostat] + COc1cccc2cc(-c3nc([C@H]4CC[C@H](C(=O)O)CC4)n4ncnc(N)c34)[nH]c12 [OSI-027] (partner 0.5 µM)
In short: as §1

[3] = compound: O=C(CCCCCCC(=O)Nc1ccccc1)NO [Vorinostat] + CS(=O)(=O)CCNCc1ccc(-c2ccc3ncnc(Nc4ccc(OCc5cccc(F)c5)c(Cl)c4)c3c2)o1 [Lapatinib] (partner 2 µM)
In short: as §1

[4] = compound: O=C(CCCCCCC(=O)Nc1ccccc1)NO [Vorinostat] + Cc1nc(NC(=O)N2CCC[C@H]2C(N)=O)sc1-c1ccnc(C(C)(C)C(F)(F)F)c1 [Alpelisib] (partner 2 µM)
In short: as §1

[5] = compound: O=C(CCCCCCC(=O)Nc1ccccc1)NO [Vorinostat] + Nc1ncn([C@H]2C[C@H](O)[C@@H](CO)O2)c(=O)n1 [Decitabine] (partner 2 µM)
In short: as §1

| Cell Line | relative viability ([1]; first compound 0.253 µM) | relative viability ([1]; first compound 0.8 µM) | relative viability ([1]; first compound 2.53 µM) | relative viability ([1]; first compound 8 µM) | relative viability ([2]; first compound 0.253 µM) | relative viability ([2]; first compound 0.8 µM) | relative viability ([2]; first compound 2.53 µM) | relative viability ([2]; first compound 8 µM) | relative viability ([3]; first compound 0.253 µM) | relative viability ([3]; first compound 0.8 µM) | relative viability ([3]; first compound 2.53 µM) | relative viability ([3]; first compound 8 µM) | relative viability ([4]; first compound 0.253 µM) | relative viability ([4]; first compound 0.8 µM) | relative viability ([4]; first compound 2.53 µM) | relative viability ([4]; first compound 8 µM) | relative viability ([5]; first compound 0.253 µM) | relative viability ([5]; first compound 0.8 µM) | relative viability ([5]; first compound 2.53 µM) | relative viability ([5]; first compound 8 µM) |
| --- | --- | --- | --- | --- | --- | --- | --- | --- | --- | --- | --- | --- | --- | --- | --- | --- | --- | --- | --- | --- |
| EMC-BAC-2 | 1.13 | 1.13 | 0.484 | 0.182 | 0.356 | 0.316 | 0.173 | 0.146 | 1.04 | 0.871 | 0.405 | 0.149 | 0.88 | 0.745 | 0.409 | 0.113 | 0.958 | 0.716 | 0.373 | 0.168 |
| EPLC-272H | 0.497 | 0.195 | 0.273 | 0.158 | 0.272 | 0.228 | 0.175 | 0.147 | 0.788 | 0.761 | 0.278 | 0.14 | 0.928 | 0.893 | 0.396 | 0.175 | 0.309 | 0.338 | 0.189 | 0.152 |
| H3255 | 0.743 | 0.808 | 0.602 | 0.315 | 0.669 | 0.694 | 0.478 | 0.289 | 0.24 | 0.17 | 0.141 | 0.101 | 0.874 | 0.714 | 0.414 | 0.209 | 0.839 | 0.607 | 0.427 | 0.173 |
| HARA | 0.693 | 0.689 | 0.118 | 0.053 | 0.64 | 0.213 | 0.155 | 0.0573 | 0.849 | 0.682 | 0.237 | 0.112 | 0.949 | 0.761 | 0.174 | 0.0907 | 0.468 | 0.367 | 0.194 | 0.0814 |
| HCC-15 | 0.526 | 0.565 | 0.361 | 0.148 | 0.698 | 0.487 | 0.269 | 0.0848 | 0.941 | 0.852 | 0.569 | 0.129 | 0.93 | 0.864 | 0.468 | 0.0971 | 0.69 | 0.521 | 0.2 | 0.0924 |
| HCC-44 | 1.23 | 0.804 | 0.205 | 0.141 | 0.611 | 0.281 | 0.103 | 0.254 | 1.03 | 0.985 | 0.508 | 0.111 | 0.896 | 0.587 | 0.186 | 0.0876 | 1.03 | 0.896 | 0.737 | 0.413 |
| HCC-78 |  |  |  |  | 0.346 | 0.32 | 0.224 | 0.234 | 0.705 | 0.455 | 0.249 | 0.155 | 0.346 | 0.208 | 0.114 | 0.099 | 0.672 | 0.634 | 0.355 | 0.236 |
| HCC-366 |  |  |  |  | 0.979 | 0.432 | 0.146 | 0.0279 | 1.16 | 0.741 | 0.0772 | 0.0322 | 0.456 | 0.36 | 0.0363 | 0.0122 | 0.383 | 0.244 | 0.0518 | 0.0306 |
